Source: patent US20160262390A1, “FIELD APPLICATION OF SUGARS TO INCREASE CROP YIELD” (Minn-Dak Farmers Cooperative, priority 2015, published 2016)

What was measured:
soybeans [1] = test: Pre-planting sugar application on soybeans, Hickson; assay type: in vivo, soybean; details: for Yield / Yield Increase Compared to Check Average: ND
Experimental: (§1) The field trials were conducted simultaneously in two different planting locations for each of the crops. One location was near the community of Foxhome in Wilkin County, Minnesota (hereafter referred to as “Foxhome”) while the second location was near the community of Hickson in Cass County, North Dakota (hereafter referred to as “Hickson”). The Foxhome and Hickson locations are on opposite sides of the Red River along the border of Minnesota and North Dakota and separated by a distance exceeding 40 miles. Generally, the Foxhome location has heavier clay loam soil conditions while Hickson has sandy loam soil conditions.
(§2) At each of the Foxhome and Hickson locations, a total of thirty two (32) treatments were conducted for each crop (sugarbeets, soybeans, corn, wheat). Each treatment was replicated four times arranged in a Randomized Complete Block (RCB) Design in the same field. Each replication consisted of a plot measuring twenty five (25) feet in length and eleven (11) feet in width. In selecting the particular seed types for evaluation, popular commercial varieties to the region were utilized. For the row crops (sugarbeets, soybeans, corn) each replication included a width of six (6) rows with twenty two (22) inch row spacing and having a row length of twenty five (25) feet. The wheat was planted in accordance with standard commercial practices. To reduce/eliminate any treatment impacts between adjacent plots for the crops, only the four (4) interior rows of each plot were treated and evaluated for row crops, while for wheat, only the interior 7.33 feet of each plot were treated and evaluated. With the exception of the treatment program applied to the individual plots, which will be discussed below, conventional commercial growing practices for each planting location were otherwise followed during the field trials. While the individual plots at the same location, Hickson or Foxhome, experienced essentially the same growing conditions throughout the season, there were various differences associated with localized precipitation, general growing conditions, soil classification and the like, which contributed to performance differences between the Hickson and Foxhome locations.
(§3) The treatment regimen at each location for each of the tested crops included two (2) untreated treatments (Treatments 31 and 32) in which no sugar was applied and constitute the control elements. […] Six (6) treatments (Treatments 13-18) included the liquid application of high fructose corn syrup (hereafter “HFCS”) at varying rates. Six treatments (Treatments 19-24) included the liquid application of dextrose (hereafter “LIQDEX”) at varying rates. Six (6) treatments (Treatments 25-30) included the application of powdered cellulose (hereafter “POWCEL”) at varying rates. For the sugar applied in a solid form, granulated or powdered, field application was conducted via conventional broadcast spreading. For the sugar applied in a liquid form, a liquid concentrate was mixed and diluted with water in a tank and a conventional sprayer was configured such that the liquid was sprayed so as to have the same sugar equivalent (measured in pounds/per acre) as the sugar in solid form. Regardless of whether the sugar was applied as a solid or liquid, the sugar was applied directly onto the soil before spring tillage, lightly worked into the ground and followed by planting of the crop seed in the treated ground. A summary of application rates for each plot treatments are contained in Table 7 below and were used consistently with each of the crops (sugarbeets, soybeans, corn, wheat).
(§4) To test the impact of pre-planting application rates and sugar source on soybeans, identical field trials using Syngenta brand soybean seed were conducted at the Foxhome and Hickson locations. Planting of the soybean seed and harvest of the soybeans were conducted on approximately the same dates so as to have essentially the same growing season. […]

sugarbeets = test: Pre-planting sugar application on sugarbeets, Foxhome; assay type: in vivo, sugarbeet; details: for Recoverable Sugar Yield / Recoverable Sugar Yield Increase Compared to Check Average / Sugarbeet Yield: MN
Experimental: as §1
as §2, with “trials.” for “trials. While the individual plots at the same location, Hickson or Foxhome, experienced essentially the same growing conditions throughout the season, there were various differences associated with localized precipitation, general growing conditions, soil classification and the like, which contributed to performance differences between the Hickson and Foxhome locations.”
as §3
To test the impact of pre-planting application rates and sugar source on sugarbeets, identical field trials using Crystal® brand ACH 260 sugarbeet seed were conducted at the Foxhome and Hickson locations. Planting of the sugarbeet seed and harvest of the sugarbeets were conducted on as close to the same dates as practical so as to have essentially the same length growing season.

corn = test: Pre-planting sugar application on corn, Foxhome; assay type: in vivo; details: for Yield / Yield Increase Compared to Check Average: MN
Experimental: as §1, §2, §3
as §4, with “corn,” for “soybeans,”, “Peterson Farms” for “Syngenta”, “corn” for “soybean”, “corn” for “soybeans”, “on” for “on approximately”

soybeans [2] = test: Pre-planting sugar application on soybeans, Foxhome; assay type: in vivo, soybean; details: for Yield / Yield Increase Compared to Check: MN
Experimental: as §1, §2, §3, §4

[3] = six rates (25-250 pounds/Acre) per sugar, thirty in all

OC[C@H]1O[C@@](CO)(O[C@H]2O[C@H](CO)[C@@H](O)[C@H](O)[C@H]2O)[C@@H](O)[C@@H]1O [LIQSUC, sucrose]
Yield (soybeans [1]; pre-planting 25 pounds/Acre): 61.90 Bushels/Acre | Yield Increase Compared to Check Average (soybeans [1]; pre-planting 25 pounds/Acre): 0.24% | Yield (soybeans [1]; pre-planting 50 pounds/Acre): 61.87 Bushels/Acre | Yield Increase Compared to Check Average (soybeans [1]; pre-planting 50 pounds/Acre): 0.19% | Yield (soybeans [1]; pre-planting 100 pounds/Acre): 59.52 Bushels/Acre | Yield Increase Compared to Check Average (soybeans [1]; pre-planting 100 pounds/Acre): −3.61% | Yield (soybeans [1]; pre-planting 150 pounds/Acre): 59.71 Bushels/Acre | Yield Increase Compared to Check Average (soybeans [1]; pre-planting 150 pounds/Acre): −3.30% | Yield (soybeans [1]; pre-planting 200 pounds/Acre): 61.36 Bushels/Acre | Yield Increase Compared to Check Average (soybeans [1]; pre-planting 200 pounds/Acre): −0.63% | Yield (soybeans [1]; pre-planting 250 pounds/Acre): 61.03 Bushels/Acre | Yield Increase Compared to Check Average (soybeans [1]; pre-planting 250 pounds/Acre): −1.17% | number of treatments showing negative yield benefits compared to check average (soybeans [1]; six rates per sugar): four of the six | Recoverable Sugar Yield (sugarbeets; pre-planting 25 pounds/Acre): 8629 Pounds/Acre | Recoverable Sugar Yield Increase Compared to Check Average (sugarbeets; pre-planting 25 pounds/Acre): 0.61% | Sugarbeet Yield (sugarbeets; pre-planting 25 pounds/Acre): 32.17 Tons/Acre | Recoverable Sugar Yield (sugarbeets; pre-planting 50 pounds/Acre): 8627 Pounds/Acre | Recoverable Sugar Yield Increase Compared to Check Average (sugarbeets; pre-planting 50 pounds/Acre): 0.58% | Sugarbeet Yield (sugarbeets; pre-planting 50 pounds/Acre): 31.21 Tons/Acre | Recoverable Sugar Yield (sugarbeets; pre-planting 100 pounds/Acre): 8592 Pounds/Acre | Recoverable Sugar Yield Increase Compared to Check Average (sugarbeets; pre-planting 100 pounds/Acre): 0.17% | Sugarbeet Yield (sugarbeets; pre-planting 100 pounds/Acre): 31.79 Tons/Acre | Recoverable Sugar Yield (sugarbeets; pre-planting 150 pounds/Acre): 8646 Pounds/Acre | Recoverable Sugar Yield Increase Compared to Check Average (sugarbeets; pre-planting 150 pounds/Acre): 0.80% | Sugarbeet Yield (sugarbeets; pre-planting 150 pounds/Acre): 30.26 Tons/Acre | Recoverable Sugar Yield (sugarbeets; pre-planting 200 pounds/Acre): 8473 Pounds/Acre | Recoverable Sugar Yield Increase Compared to Check Average (sugarbeets; pre-planting 200 pounds/Acre): −1.21% | Sugarbeet Yield (sugarbeets; pre-planting 200 pounds/Acre): 30.23 Tons/Acre | Recoverable Sugar Yield (sugarbeets; pre-planting 250 pounds/Acre): 8424 Pounds/Acre | Sugarbeet Yield (sugarbeets; pre-planting 250 pounds/Acre): 31.04 Tons/Acre | number of treatments showing yield improvement compared to check average (sugarbeets; [3]): four of the six | Yield (corn; pre-planting 25 pounds/Acre): 264.82 Bushels/Acre | Yield Increase Compared to Check Average (corn; pre-planting 25 pounds/Acre): −0.35% | Yield (corn; pre-planting 50 pounds/Acre): 274.43 Bushels/Acre | Yield Increase Compared to Check Average (corn; pre-planting 50 pounds/Acre): 3.26% | Yield (corn; pre-planting 100 pounds/Acre): 264.79 Bushels/Acre | Yield Increase Compared to Check Average (corn; pre-planting 100 pounds/Acre): −0.36% | Yield (corn; pre-planting 150 pounds/Acre): 270.66 Bushels/Acre | Yield Increase Compared to Check Average (corn; pre-planting 150 pounds/Acre): 1.84% | Yield (corn; pre-planting 200 pounds/Acre): 271.85 Bushels/Acre | Yield Increase Compared to Check Average (corn; pre-planting 200 pounds/Acre): 2.29% | Yield (corn; pre-planting 250 pounds/Acre): 263.78 Bushels/Acre | Yield Increase Compared to Check Average (corn; pre-planting 250 pounds/Acre): −0.75% | number of treatments showing yield improvement compared to check average (corn; [3]): three of the six | Yield (soybeans [2]; pre-planting 25 pounds/Acre): 67.82 Bushels/Acre | Yield Increase Compared to Check (soybeans [2]; pre-planting 25 pounds/Acre): −1.05% | Yield (soybeans [2]; pre-planting 50 pounds/Acre): 72.08 Bushels/Acre | Yield Increase Compared to Check (soybeans [2]; pre-planting 50 pounds/Acre): 5.16% | Yield (soybeans [2]; pre-planting 100 pounds/Acre): 71.28 Bushels/Acre | Yield Increase Compared to Check (soybeans [2]; pre-planting 100 pounds/Acre): 4.00% | Yield (soybeans [2]; pre-planting 150 pounds/Acre): 70.57 Bushels/Acre | Yield Increase Compared to Check (soybeans [2]; pre-planting 150 pounds/Acre): 2.96% | Yield (soybeans [2]; pre-planting 200 pounds/Acre): 68.33 Bushels/Acre | Yield Increase Compared to Check (soybeans [2]; pre-planting 200 pounds/Acre): −0.31% | Yield (soybeans [2]; pre-planting 250 pounds/Acre): 72.14 Bushels/Acre | Yield Increase Compared to Check (soybeans [2]; pre-planting 250 pounds/Acre): 5.25% | number of treatments showing yield improvement compared to check treatment 31 (soybeans [2]; [3]): four of the six
